According to PubChem BioAssay (NCI):
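Test compounds were applied to cells in 96-well plates for 48 hours at 5 doses. TGI is the concentration that stops growth completely.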

Experiments:
Assay in all cases: NCI tumour cell line growth inhibition, 48 h
M19-MEL melanoma = tested on: M19-MEL melanoma
RXF 393 renal = tested on: RXF 393 renal
UACC-257 melanoma = tested on: UACC-257 melanoma
MCF7 breast = tested on: MCF7 breast
HCT-15 colon = tested on: HCT-15 colon
OVCAR-3 ovarian = tested on: OVCAR-3 ovarian
NCI-H226 lung = tested on: NCI-H226 lung
CCRF-CEM leukemia = tested on: CCRF-CEM leukemia
SK-MEL-2 melanoma = tested on: SK-MEL-2 melanoma
P388 leukemia = tested on: P388 leukemia
HCC-2998 colon = tested on: HCC-2998 colon
NCI/ADR-RES ovarian = tested on: NCI/ADR-RES ovarian
OVCAR-5 ovarian = tested on: OVCAR-5 ovarian
EKVX NSCLC = tested on: EKVX NSCLC
U251 CNS = tested on: U251 CNS
DMS 114 small cell lung = tested on: DMS 114 small cell lung
XF 498 CNS = tested on: XF 498 CNS
HT29 colon = tested on: HT29 colon
CAKI-1 renal = tested on: CAKI-1 renal
UACC-62 melanoma = tested on: UACC-62 melanoma
K-562 leukemia = tested on: K-562 leukemia
MOLT-4 leukemia = tested on: MOLT-4 leukemia
UO-31 renal = tested on: UO-31 renal
A498 renal = tested on: A498 renal
HCT-116 colon = tested on: HCT-116 colon
SK-MEL-28 melanoma = tested on: SK-MEL-28 melanoma
RPMI-8226 leukemia = tested on: RPMI-8226 leukemia
LOX IMVI melanoma = tested on: LOX IMVI melanoma
SF-295 CNS = tested on: SF-295 CNS
SNB-19 CNS = tested on: SNB-19 CNS
MALME-3M melanoma = tested on: MALME-3M melanoma
SK-OV-3 ovarian = tested on: SK-OV-3 ovarian
SN12C renal = tested on: SN12C renal
SNB-78 CNS = tested on: SNB-78 CNS
NCI-H522 lung = tested on: NCI-H522 lung
SW-620 colon = tested on: SW-620 colon
KM20L2 colon = tested on: KM20L2 colon
SN12K1 renal = tested on: SN12K1 renal
HL-60(TB) leukemia = tested on: HL-60(TB) leukemia
HOP-18 NSCLC = tested on: HOP-18 NSCLC
P388/ADR leukemia = tested on: P388/ADR leukemia
A549 NSCLC = tested on: A549 NSCLC
NCI-H23 lung = tested on: NCI-H23 lung
OVCAR-8 ovarian = tested on: OVCAR-8 ovarian
SNB-75 CNS = tested on: SNB-75 CNS
DLD-1 colon = tested on: DLD-1 colon
COLO 205 colon = tested on: COLO 205 colon
HOP-62 NSCLC = tested on: HOP-62 NSCLC
HOP-92 NSCLC = tested on: HOP-92 NSCLC
NCI-H460 lung = tested on: NCI-H460 lung
DMS 273 small cell lung = tested on: DMS 273 small cell lung
SF-268 CNS = tested on: SF-268 CNS
IGROV1 ovarian = tested on: IGROV1 ovarian
KM12 colon = tested on: KM12 colon
SK-MEL-5 melanoma = tested on: SK-MEL-5 melanoma
SF-539 CNS = tested on: SF-539 CNS
OVCAR-4 ovarian = tested on: OVCAR-4 ovarian
ACHN renal = tested on: ACHN renal
TK-10 renal = tested on: TK-10 renal
RXF-631 renal = tested on: RXF-631 renal
LXFL 529 NSCLC = tested on: LXFL 529 NSCLC
786-0 renal = tested on: 786-0 renal
M14 melanoma = tested on: M14 melanoma
SR leukemia = tested on: SR leukemia

## O=C1C=CC2OC(c3ccccc3)C(O)C2O1 (stereo not drawn)
M19-MEL melanoma
  TGI: 30.8 µM
RXF 393 renal
  TGI: 4.47 µM
UACC-257 melanoma
  TGI: 18.5 µM
MCF7 breast
  TGI: 16.8 µM
HCT-15 colon
  TGI: 14.4 µM
OVCAR-3 ovarian
  TGI: 10.7 µM
NCI-H226 lung
  TGI: 5.2 µM
CCRF-CEM leukemia
  TGI: 11.6 µM
SK-MEL-2 melanoma
  TGI: 6.63 µM
P388 leukemia
  TGI: 6.53 µM
HCC-2998 colon
  TGI: 10.9 µM
NCI/ADR-RES ovarian
  TGI: 15.2 µM
OVCAR-5 ovarian
  TGI: 21.5 µM
EKVX NSCLC
  TGI: 15.4 µM
U251 CNS
  TGI: 22.4 µM
DMS 114 small cell lung
  TGI: 14.7 µM
XF 498 CNS
  TGI: 10.1 µM
HT29 colon
  TGI: 35.2 µM
CAKI-1 renal
  TGI: 13 µM
UACC-62 melanoma
  TGI: 20.9 µM
K-562 leukemia
  TGI: 59.7 µM
MOLT-4 leukemia
  TGI: 4.41 µM
UO-31 renal
  TGI: 21.1 µM
A498 renal
  TGI: 5.85 µM
HCT-116 colon
  TGI: 10.6 µM
SK-MEL-28 melanoma
  TGI: 11.8 µM
RPMI-8226 leukemia
  TGI: 7.65 µM
LOX IMVI melanoma
  TGI: 8.18 µM
SF-295 CNS
  TGI: 19.6 µM
SNB-19 CNS
  TGI: 30.2 µM
MALME-3M melanoma
  TGI: 11.3 µM
SK-OV-3 ovarian
  TGI: 39.5 µM
SN12C renal
  TGI: 22.9 µM
SNB-78 CNS
  TGI: 46.3 µM
NCI-H522 lung
  TGI: 4 µM
SW-620 colon
  TGI: 9.87 µM
KM20L2 colon
  TGI: 23.8 µM
SN12K1 renal
  TGI: 14.9 µM
HL-60(TB) leukemia
  TGI: 3.29 µM
HOP-18 NSCLC
  TGI: 1.81 µM
P388/ADR leukemia
  TGI: 7.63 µM
A549 NSCLC
  TGI: 14.5 µM
NCI-H23 lung
  TGI: 12.6 µM
OVCAR-8 ovarian
  TGI: 20.2 µM
SNB-75 CNS
  TGI: 31 µM
DLD-1 colon
  TGI: 13.9 µM
COLO 205 colon
  TGI: 11 µM
HOP-62 NSCLC
  TGI: 26 µM
HOP-92 NSCLC
  TGI: 10.2 µM
NCI-H460 lung
  TGI: 16.2 µM
DMS 273 small cell lung
  TGI: 18.2 µM
SF-268 CNS
  TGI: 15.6 µM
IGROV1 ovarian
  TGI: 29.1 µM
KM12 colon
  TGI: 17.3 µM
SK-MEL-5 melanoma
  TGI: 17.1 µM
SF-539 CNS
  TGI: 14.1 µM
OVCAR-4 ovarian
  TGI: 17.9 µM

## COc1cc2c(c(OC)c1OC)-c1ccc(SC)c(=O)cc1C(CC(=O)Oc1cccc([N+](=O)[O-])c1)C2 (stereo not drawn)
M19-MEL melanoma
  TGI: > 100 µM
RXF 393 renal
  TGI: > 100 µM
UACC-257 melanoma
  TGI: > 100 µM
HCT-15 colon
  TGI: 2.24 µM
OVCAR-3 ovarian
  TGI: 0.94 µM
NCI-H226 lung
  TGI: 3.51 µM
CCRF-CEM leukemia
  TGI: > 57.2 µM
SK-MEL-2 melanoma
  TGI: > 100 µM
ACHN renal
  TGI: > 100 µM
HCC-2998 colon
  TGI: 0.849 µM
OVCAR-5 ovarian
  TGI: > 100 µM
EKVX NSCLC
  TGI: > 100 µM
DMS 114 small cell lung
  TGI: 3.95 µM
XF 498 CNS
  TGI: 20.3 µM
HT29 colon
  TGI: 1.99 µM
CAKI-1 renal
  TGI: > 100 µM
TK-10 renal
  TGI: > 100 µM
RXF-631 renal
  TGI: 12.8 µM
K-562 leukemia
  TGI: > 100 µM
MOLT-4 leukemia
  TGI: > 100 µM
UO-31 renal
  TGI: > 100 µM
A498 renal
  TGI: 0.823 µM
HCT-116 colon
  TGI: 3.72 µM
SK-MEL-28 melanoma
  TGI: > 100 µM
RPMI-8226 leukemia
  TGI: > 54.8 µM
LOX IMVI melanoma
  TGI: > 32.1 µM
SF-295 CNS
  TGI: > 100 µM
SNB-19 CNS
  TGI: > 100 µM
MALME-3M melanoma
  TGI: > 100 µM
SK-OV-3 ovarian
  TGI: > 100 µM
SN12C renal
  TGI: > 76.9 µM
SNB-78 CNS
  TGI: > 100 µM
NCI-H522 lung
  TGI: 5.81 µM
SW-620 colon
  TGI: > 100 µM
KM20L2 colon
  TGI: 2.06 µM
LXFL 529 NSCLC
  TGI: > 100 µM
HOP-18 NSCLC
  TGI: > 100 µM
786-0 renal
  TGI: > 100 µM
A549 NSCLC
  TGI: > 100 µM
OVCAR-8 ovarian
  TGI: 10.4 µM
SNB-75 CNS
  TGI: 0.71 µM
DLD-1 colon
  TGI: > 56.9 µM
COLO 205 colon
  TGI: 2.24 µM
HOP-62 NSCLC
  TGI: > 100 µM
HOP-92 NSCLC
  TGI: > 100 µM
NCI-H460 lung
  TGI: 8.13 µM
M14 melanoma
  TGI: > 100 µM
DMS 273 small cell lung
  TGI: > 100 µM
SF-268 CNS
  TGI: > 27.2 µM
IGROV1 ovarian
  TGI: > 100 µM
KM12 colon
  TGI: 5.4 µM
SK-MEL-5 melanoma
  TGI: > 100 µM
SF-539 CNS
  TGI: 1.32 µM
OVCAR-4 ovarian
  TGI: > 100 µM

## O=C(Nc1cccc2c1C(=O)c1c(NC(=O)c3ccccc3)ccc(Nc3cccc4c3C(=O)c3ccccc3C4=O)c1C2=O)c1ccccc1
M19-MEL melanoma
  TGI: > 100 µM
RXF 393 renal
  TGI: > 100 µM
UACC-257 melanoma
  TGI: > 100 µM
HCT-15 colon
  TGI: > 100 µM
OVCAR-3 ovarian
  TGI: > 100 µM
NCI-H226 lung
  TGI: > 100 µM
CCRF-CEM leukemia
  TGI: > 100 µM
SK-MEL-2 melanoma
  TGI: > 100 µM
ACHN renal
  TGI: > 100 µM
HCC-2998 colon
  TGI: > 100 µM
EKVX NSCLC
  TGI: > 100 µM
U251 CNS
  TGI: > 100 µM
DMS 114 small cell lung
  TGI: > 100 µM
CAKI-1 renal
  TGI: > 100 µM
TK-10 renal
  TGI: > 100 µM
RXF-631 renal
  TGI: > 100 µM
UACC-62 melanoma
  TGI: > 100 µM
K-562 leukemia
  TGI: > 100 µM
MOLT-4 leukemia
  TGI: > 100 µM
UO-31 renal
  TGI: > 100 µM
A498 renal
  TGI: > 100 µM
HCT-116 colon
  TGI: > 100 µM
SK-MEL-28 melanoma
  TGI: > 100 µM
RPMI-8226 leukemia
  TGI: > 100 µM
SNB-19 CNS
  TGI: > 100 µM
MALME-3M melanoma
  TGI: > 100 µM
SK-OV-3 ovarian
  TGI: > 100 µM
SN12C renal
  TGI: > 100 µM
SNB-78 CNS
  TGI: > 100 µM
NCI-H522 lung
  TGI: > 100 µM
SW-620 colon
  TGI: > 100 µM
KM20L2 colon
  TGI: > 100 µM
SR leukemia
  TGI: > 100 µM
LXFL 529 NSCLC
  TGI: > 100 µM
HL-60(TB) leukemia
  TGI: > 100 µM
HOP-18 NSCLC
  TGI: > 100 µM
786-0 renal
  TGI: > 100 µM
A549 NSCLC
  TGI: > 100 µM
OVCAR-8 ovarian
  TGI: > 100 µM
SNB-75 CNS
  TGI: > 100 µM
DLD-1 colon
  TGI: > 100 µM
COLO 205 colon
  TGI: > 100 µM
HOP-62 NSCLC
  TGI: > 100 µM
NCI-H460 lung
  TGI: > 100 µM
M14 melanoma
  TGI: > 100 µM
DMS 273 small cell lung
  TGI: > 100 µM
SF-268 CNS
  TGI: > 100 µM
IGROV1 ovarian
  TGI: > 100 µM
KM12 colon
  TGI: > 100 µM
SK-MEL-5 melanoma
  TGI: > 100 µM
SF-539 CNS
  TGI: > 100 µM
OVCAR-4 ovarian
  TGI: > 100 µM
